Experimental data from ChEMBL document CHEMBL1129964 (J Med Chem, 1997).

Experiments:
Prothrombin = Prothrombin (Homo sapiens, UniProt P00734); assay: Binding affinity towards thrombin
Serine protease 1 = Serine protease 1 (Homo sapiens, UniProt P07477); assay: Binding affinity towards trypsin
Plasminogen = Plasminogen (Homo sapiens, UniProt P00747); assay: Binding affinity towards Plasmin
[1] = biological target: Tissue-type plasminogen activator (Homo sapiens, UniProt P00750); assay: Binding affinity against tissue-type plasminogen activator receptor
Chain of Tissue-type plasminogen activator (P00750 whole entry): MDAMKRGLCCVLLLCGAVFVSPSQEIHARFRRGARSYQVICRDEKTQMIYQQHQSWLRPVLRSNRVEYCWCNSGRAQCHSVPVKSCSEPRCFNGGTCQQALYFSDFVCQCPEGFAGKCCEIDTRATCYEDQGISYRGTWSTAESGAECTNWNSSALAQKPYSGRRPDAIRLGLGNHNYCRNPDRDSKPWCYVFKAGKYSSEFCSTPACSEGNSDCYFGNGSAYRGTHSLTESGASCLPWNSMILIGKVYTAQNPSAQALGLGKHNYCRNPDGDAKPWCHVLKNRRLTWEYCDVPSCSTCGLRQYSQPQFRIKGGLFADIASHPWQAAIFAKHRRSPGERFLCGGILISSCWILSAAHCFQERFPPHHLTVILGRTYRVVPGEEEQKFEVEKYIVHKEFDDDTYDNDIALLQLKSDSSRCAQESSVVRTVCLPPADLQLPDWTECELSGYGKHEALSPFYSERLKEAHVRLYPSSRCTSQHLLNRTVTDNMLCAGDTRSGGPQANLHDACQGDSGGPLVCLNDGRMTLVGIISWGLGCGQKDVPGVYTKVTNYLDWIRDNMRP

Chain of Serine protease 1 (P07477 whole entry): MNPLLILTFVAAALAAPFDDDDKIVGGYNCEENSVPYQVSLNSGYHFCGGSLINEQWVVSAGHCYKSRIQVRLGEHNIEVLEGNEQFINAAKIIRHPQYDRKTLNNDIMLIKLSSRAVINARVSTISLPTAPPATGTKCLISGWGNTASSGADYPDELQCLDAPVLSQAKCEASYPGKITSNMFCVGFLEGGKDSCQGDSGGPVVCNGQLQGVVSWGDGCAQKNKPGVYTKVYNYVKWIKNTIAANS
Chain of Plasminogen (P00747 97-580 limits assumed): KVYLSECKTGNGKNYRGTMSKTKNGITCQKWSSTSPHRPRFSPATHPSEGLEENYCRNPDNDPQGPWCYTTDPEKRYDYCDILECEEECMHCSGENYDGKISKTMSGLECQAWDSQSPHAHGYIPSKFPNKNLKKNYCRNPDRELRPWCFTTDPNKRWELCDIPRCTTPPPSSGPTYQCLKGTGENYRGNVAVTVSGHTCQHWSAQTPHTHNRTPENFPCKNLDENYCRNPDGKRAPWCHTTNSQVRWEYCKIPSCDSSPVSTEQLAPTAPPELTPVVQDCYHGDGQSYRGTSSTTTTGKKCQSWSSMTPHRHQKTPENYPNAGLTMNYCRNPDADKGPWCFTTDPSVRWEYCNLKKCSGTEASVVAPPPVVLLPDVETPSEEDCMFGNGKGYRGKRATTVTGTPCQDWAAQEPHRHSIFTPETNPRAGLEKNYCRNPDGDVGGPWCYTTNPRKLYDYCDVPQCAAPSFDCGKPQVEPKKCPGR
Chain of Plasminogen (P00747 581-810 limits assumed): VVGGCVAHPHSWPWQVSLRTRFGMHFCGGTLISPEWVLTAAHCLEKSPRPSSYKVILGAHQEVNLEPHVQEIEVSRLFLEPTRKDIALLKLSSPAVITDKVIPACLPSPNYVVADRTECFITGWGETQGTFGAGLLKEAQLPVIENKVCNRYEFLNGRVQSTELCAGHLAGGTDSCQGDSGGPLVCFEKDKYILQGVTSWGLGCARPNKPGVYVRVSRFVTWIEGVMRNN

SMILES | Ki (Prothrombin) [pM] | Ki (Serine protease 1) [µM] | Ki (Plasminogen) [µM] | Ki [1] [µM]
CN[C@H](Cc1ccccc1)C(=O)N1CCC[C@H]1C(=O)NC[C@H]1CC[C@H](N)CC1 | 5000 |  |  | 
CNC(=O)C(=O)[C@@H](NC(=O)[C@@H]1CCCN1C(=O)[C@@H](Cc1ccccc1)NC)[C@H]1CC[C@H](N)CC1 | 90 |  |  | 
NC1CCC(CNC(=O)[C@@H]2CCCN2C(=O)[C@@H](Cc2ccccc2)NS(=O)(=O)Cc2ccccc2)CC1 (stereo partly drawn) | 400 |  |  | 
NC1CCC(CNC(=O)[C@@H]2CCCN2C(=O)[C@H](N)C(c2ccccc2)c2ccccc2)CC1 (stereo partly drawn) | 100 |  |  | 
NC1CCC(CNC(=O)[C@@H]2CCCN2C(=O)C(NS(=O)(=O)Cc2ccccc2)C(c2ccccc2)c2ccccc2)CC1 (stereo partly drawn) | 2.5 | 0.004 | 0.49 | 6700
